Substitutions are numbered along the chain they refer to.

Consider one substance from paper PMC3510438, “The transmembrane tyrosines Y56, Y91 and Y167 play important roles in determining the affinity and transport rate of the rabbit proton-coupled peptide transporter PepT1” (The International Journal of Biochemistry & Cell Biology, 2009).

Holding throughout (assay): Uptake of tracer [3H]-D-Phe-L-Gln into Xenopus oocytes
Format in all cases: cell-based, rabbit

Test [1] concerns the target T1, T58Y-rPepT1 (Oryctolagus cuniculus, UniProt P36836, T58Y).
T1 construct: expressed in transfected cells; host or cells: Xenopus laevis oocytes injected with cRNA
T1 sequence (P36836 1-707 T58Y): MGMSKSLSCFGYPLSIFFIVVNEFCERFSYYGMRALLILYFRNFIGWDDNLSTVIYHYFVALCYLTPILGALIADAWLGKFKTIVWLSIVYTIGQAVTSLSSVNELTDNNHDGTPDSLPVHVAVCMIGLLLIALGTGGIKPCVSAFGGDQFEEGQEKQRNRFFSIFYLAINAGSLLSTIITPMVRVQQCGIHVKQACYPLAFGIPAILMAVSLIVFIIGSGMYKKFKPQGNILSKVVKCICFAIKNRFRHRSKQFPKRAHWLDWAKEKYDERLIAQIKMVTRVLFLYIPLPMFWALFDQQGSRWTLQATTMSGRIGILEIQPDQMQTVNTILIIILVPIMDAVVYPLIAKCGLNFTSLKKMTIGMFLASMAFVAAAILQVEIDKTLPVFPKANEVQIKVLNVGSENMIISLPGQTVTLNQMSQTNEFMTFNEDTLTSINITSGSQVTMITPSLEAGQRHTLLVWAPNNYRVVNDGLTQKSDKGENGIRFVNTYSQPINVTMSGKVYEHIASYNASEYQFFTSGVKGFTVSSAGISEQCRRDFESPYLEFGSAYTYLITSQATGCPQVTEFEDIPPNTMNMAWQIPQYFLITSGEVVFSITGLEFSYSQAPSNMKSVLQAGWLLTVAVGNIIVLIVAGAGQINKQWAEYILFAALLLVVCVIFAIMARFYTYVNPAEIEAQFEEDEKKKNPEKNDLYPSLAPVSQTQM
The following applies: both pHout 5.5 and 7.4. On the procedure:
(§1) rPepT1 constructs were linearised with XbaI (New England Biolabs, UK) and cRNA generated by in vitro transcription (T7 mMessage mMachine, Ambion, Cambridgeshire, UK). Xenopus laevis oocytes were obtained under MS222 anaesthesia (0.2%, w/v) in accordance with the UK Animals (Scientific Procedures) Act, 1986, and maintained at 18 °C in modified Barth's medium (88 mM NaCl, 1 mM KCl, 0.82 mM MgSO4, 2.4 mM NaHCO3, 0.42 mM CaCl2, 10 mM Hepes, 5 mM sodium pyruvate, 50 μg ml^−1 gentamicin (Fluka, Poole, UK), adjusted to pH 7.6 with 1 M NaOH). Transport measurements were performed at least 72 h after micro-injection of oocytes with 27nl cRNA (1 μg/μl), with medium changed daily.
(§2) Uptake of [^3H]-D-Phe-L-Gln (17.4 Ci/mmole, custom synthesised, Cambridge Research Biochemicals, Stockton-on-Tees, UK) was performed as previously described ([Meredith, 2004]). Briefly, 5 oocytes were incubated in 100 μl of uptake medium (95 mM NaCl, 2 mM KCl, 1 mM CaCl2, 0.42 mM MgCl2, 10 mM Tris/Hepes pH 7.4 or Tris/Mes pH 5.5) with tracer (0.4 μM) [^3H]-D-Phe-L-Gln. After incubation, the oocytes were washed sequentially five times in 1 ml of ice-cold 120 mM NaCl solution, lysed individually with 100 μl 2% (w/v) SDS and liquid scintillation counted. As a control non-injected oocytes were also incubated in uptake medium with D-Phe-L-Gln as above.

Test [2] addresses T2, Y56F/T58Y-rPepT1 (Oryctolagus cuniculus, UniProt P36836, T58Y/Y56F).
T2 construct: expressed in transfected cells; host or cells: Xenopus laevis oocytes injected with cRNA
T2 sequence (P36836 1-707 Y56F/T58Y): T1 sequence (P36836 1-707 T58Y) with Y56F
The following applies: both pHout 5.5 and 7.4. Here is the method: as §1, §2

Test [3] concerns the target T3, Y56F-rPepT1 (Oryctolagus cuniculus, UniProt P36836, Y56F).
T3 construct: expressed in transfected cells; host or cells: Xenopus laevis oocytes injected with cRNA
T3 sequence (P36836 1-707 Y56F): T1 sequence (P36836 1-707 T58Y) with Y56F, Y58T
The following applies: pHout 5.5; 1 h. Here is the method: as §1, §2

For [^3H]-D-Phe-L-Gln, the “reduction of transport function compared to the wild-type” value in test [1] is on record as more than 70%. Moreover, in test [2], the “reduction of uptake compared to the wild-type” value was more than 90%. For the same substance, in test [3], the “decrease in rate of uptake compared to the wild-type” value was approximately 90%.
